The text below walks through data of patent US20230390226A1 (PaxMedica, Inc., priority 2021, published 2023).

Assay type in all cases: in vivo, mouse
Assay [1] relates to B6.129P2-Fmr1tm1Cgr/J transgenic (TG) mice. Nature of the assay: Light/dark preference test (LDT), anxiety-like behavior. Here is the method:
• 1. N=6 mice per group. • 2. All behavioral testing included a group of untreated wild type controls. • 3. Dosing for the various groups were as follows: • a. […] Group 2: IP saline, […], administered weekly to animals beginning at 9 weeks of age and continuing for four weeks (i.e. given at Age Weeks 9, 10, 11 and 12). • c. […] Behavioral tests for all groups (Groups 1-5) began the following day after the last day of IN dosing (Weeks 13-14 of age). • 5. Blood samples (PK testing) were collected from all mice at the end of 12 Weeks of age, just prior to starting the behavioral tests in Week 13. • 6. Brain tissue (for biochemistry testing) was harvested from all mice upon sacrifice at the conclusion of all behavioral testing at the end of 13-14 Weeks of age.
Male B6.129P2-Fmr1tm1Cgr/J TG mice were purchased from Jackson Laboratories, Bar Harbor, Maine. These mice were of approximately 8(+1) weeks of age. Mice were maintained in group cages (6 mice per cage based on treatment group) in a controlled environment (temperature: 21.5±4.5° C./relative humidity: 35-55%) under a standard 12-hour light/12-hour dark lighting cycle (lights on at 06:00). Mice accommodated to the research facility for the remainder of the week. Dosing began on the following Monday. Body weights of all mice were recorded for health monitoring purposes.
Dosing was carried out over the course of 28 days as instructed by the study sponsor. • 1. Prior to the beginning of the light/dark test, a dark box (red transparent enclosure with an opening for the mouse to enter) is placed in the SmartCage™ • 2. An individual mouse is placed in the open/non-dark box side (“Light Zone”), with its head facing away from the dark box. • 3. The mouse is then allowed to freely explore the SmartCage™ and enter the dark box “Dark Zone” at its own discretion over a 10-minute span. • 4. Anxiety-like behavior is assessed based on the SmartCage™ monitoring of time spent in the Light Zone, the number of Light Zone entries, and % Time Spent in the Light Zone. • 5. […]

Assay [2] has the same test system. Nature of the assay: Locomotor activity test (SmartCage). Here is the method: (§1) • 1. N=6 mice per group. • 2. All behavioral testing included a group of untreated wild type controls. • 3. Dosing for the various groups were as follows: • a. […] Group 2: IP saline, […], administered weekly to animals beginning at 9 weeks of age and continuing for four weeks (i.e. given at Age Weeks 9, 10, 11 and 12). • c. […] Behavioral tests for all groups (Groups 1-5) began the following day after the last day of IN dosing (Weeks 13-14 of age). • 5. Blood samples (for PK testing) were collected from all mice at the end of Week 12 of age, just prior to starting the behavioral tests in Week 13 of age. • 6. Brain tissue (for biochemistry testing) was harvested from all mice upon sacrifice at the conclusion of all behavioral testing at the end of Week 13-14 of age.
Male B6.129P2-Fmr1tm1Cgr/J TG (TG) mice were purchased from Jackson Laboratories, Bar Harbor, Maine. These mice were of approximately 8(+1) weeks of age. […] Body weights of all mice were recorded for health monitoring purposes.
Dosing was carried out over the course of 28 days as instructed by the study Sponsor. […] Day 1 to Day 2: Locomotor Activity recording is assessed using the SmartCage™ • 2. […]
Each mouse was placed in a clean plastic, transparent home cage within the SmartCage™. […] Active Time, Travel Distance, and Rearing Activity were assessed for each mouse. Data analyzed based on treatment group.

For assay [3] the test system is unchanged. Nature of the assay: Step through passive avoidance test, learning and memory. Here is the method: as §1, with “type (WT)” for “type”
Male B6.129P2-Fmr1tm1Cgr/J TG (TG) mice were purchased from Jackson Laboratories, Bar Harbor, Maine. These mice were of approximately 8 (±1) weeks of age. Mice were maintained in group cages (6 mice per cage based on treatment group) in a controlled environment (temperature: 21.5±4.5° C./relative humidity: 35-55%) under a standard 12 hour light/12 hour dark lighting cycle (lights on at 06:00). Mice accommodated to the research facility for the remainder of the week. Dosing began on the following Monday. Body weights of all mice were recorded for health monitoring purposes.
Dosing was carried out over the course of 28 days as instructed by the study Sponsor. The fifth and final behavioral test, the Step Through (ST) Passive Avoidance Test, was performed over two days (days 38 and 39) with the first day as a Training Day and the second day as a Test Day. Passive avoidance is fear-motivated tests classically used to assess short-term or long-term memory on rodents. […] The mouse is then allowed to freely explore the SmartCage™ and enter the dark box “Dark Zone” at its own discretion; dark box entry latency is automatically recorded. • 4. […] The mouse may freely explore the SmartCage™ for 5 minutes, and avoidance of the Dark Box due to contextual-fear association is assessed. • 8. […]

Regarding `Cc1ccc(C(=O)Nc2ccc(S(=O)(=O)O)c3cc(S(=O)(=O)O)cc(S(=O)(=O)O)c23)cc1NC(=O)c1cccc(NC(=O)Nc2cccc(C(=O)Nc3cc(C(=O)Nc4ccc(S(=O)(=O)O)c5cc(S(=O)(=O)O)cc(S(=O)(=O)O)c45)ccc3C)c2)c1` [suramin, 1,3,5-Naphthalenetrisulfonic acid, 8,8′-[carbonylbis[imino-3,1-phenylenecarbonylimino(4-methyl-3,1-phenylene)carbonylimino]]bis-], the “percentage of time spent in the light zone” value in assay [1] (IN weekly for 4 weeks) is “higher percentage of time spent in the Light Zone”; in assay [3] (test day, IN groups), “greater than 70%”. Further, in assay [1] (IN weekly for 4 weeks, 10-minute test), the “total time spent in the light zone” value was about 6.5 min. Besides, the “dark zone entry latency” value is 60 to 65 s in assay [1] (all IN groups (daily, every other day, weekly)) and “shortest latency” in assay [3] (Test Day, IP 20 mg/kg weekly). Further, the active time entry in assay [2] (IN daily, weekly and every 2 days, ~24 h recording) is listed as “greater activity compared to the WT control group”. The rearing count entry in assay [2] (IN every 2 days) was “comparable to the WT control group”. Moreover, in assay [3] (test day, IP 20 mg/kg weekly), the “total light zone time” value is “lower total time”.
